Results published in US9216999B2, “Substituted pyrrolo[2,3-h][1,6]naphthyridines and compositions thereof as JAK inhibitors” (priority 2011, dated 2015).

Experiments:
Assay type in all cases: biochemical
Details in all cases: ATP 100 μM
JAK2 = JAK2 (Homo sapiens (Human), UniProt O60674); test: Enzyme assay (Assay Example^a 1), JAK2
JAK3 = JAK3 (Homo sapiens (Human), UniProt P52333); test: Enzyme assay (Assay Example^a 1), JAK3
Tyk2 = Tyk2 (Homo sapiens (Human), UniProt P29597); test: Enzyme assay (Assay Example^a 1), Tyk2
Chain of Tyk2 (P29597 whole entry): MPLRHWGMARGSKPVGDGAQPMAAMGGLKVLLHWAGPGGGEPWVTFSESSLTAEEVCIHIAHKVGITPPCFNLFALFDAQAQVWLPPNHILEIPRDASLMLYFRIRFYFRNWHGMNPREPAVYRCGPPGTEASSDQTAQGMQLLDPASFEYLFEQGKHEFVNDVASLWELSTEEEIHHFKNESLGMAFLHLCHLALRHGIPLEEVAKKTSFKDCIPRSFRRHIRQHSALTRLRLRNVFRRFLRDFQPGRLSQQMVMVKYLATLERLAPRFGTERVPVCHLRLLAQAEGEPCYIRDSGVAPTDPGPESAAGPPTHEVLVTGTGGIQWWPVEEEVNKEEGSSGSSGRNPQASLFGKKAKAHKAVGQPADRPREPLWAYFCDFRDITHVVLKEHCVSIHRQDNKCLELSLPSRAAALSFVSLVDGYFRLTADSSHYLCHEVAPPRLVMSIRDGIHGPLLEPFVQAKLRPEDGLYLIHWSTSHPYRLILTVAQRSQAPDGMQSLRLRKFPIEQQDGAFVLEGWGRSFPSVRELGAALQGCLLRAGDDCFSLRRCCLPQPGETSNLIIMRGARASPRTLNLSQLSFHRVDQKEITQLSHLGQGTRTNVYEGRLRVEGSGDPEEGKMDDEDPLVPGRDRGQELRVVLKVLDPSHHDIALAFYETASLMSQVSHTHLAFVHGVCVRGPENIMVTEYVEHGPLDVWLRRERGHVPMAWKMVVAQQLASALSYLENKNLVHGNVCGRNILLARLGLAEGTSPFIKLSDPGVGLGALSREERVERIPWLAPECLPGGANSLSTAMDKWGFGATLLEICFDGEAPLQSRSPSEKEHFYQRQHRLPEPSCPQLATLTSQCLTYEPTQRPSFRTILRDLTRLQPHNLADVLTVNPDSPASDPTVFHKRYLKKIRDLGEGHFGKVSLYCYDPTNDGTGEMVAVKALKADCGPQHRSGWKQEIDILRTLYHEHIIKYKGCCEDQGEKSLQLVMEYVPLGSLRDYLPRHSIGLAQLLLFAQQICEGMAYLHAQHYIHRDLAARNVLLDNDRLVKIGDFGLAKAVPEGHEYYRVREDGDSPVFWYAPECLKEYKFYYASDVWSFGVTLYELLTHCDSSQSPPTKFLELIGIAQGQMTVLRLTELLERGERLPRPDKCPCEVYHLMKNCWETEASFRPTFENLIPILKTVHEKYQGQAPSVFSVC

JAK1 = JAK1 (Homo sapiens (Human), UniProt P23458); test: Enzyme assay (Assay Example^a 1), JAK1

Chain of JAK3 (P52333 whole entry): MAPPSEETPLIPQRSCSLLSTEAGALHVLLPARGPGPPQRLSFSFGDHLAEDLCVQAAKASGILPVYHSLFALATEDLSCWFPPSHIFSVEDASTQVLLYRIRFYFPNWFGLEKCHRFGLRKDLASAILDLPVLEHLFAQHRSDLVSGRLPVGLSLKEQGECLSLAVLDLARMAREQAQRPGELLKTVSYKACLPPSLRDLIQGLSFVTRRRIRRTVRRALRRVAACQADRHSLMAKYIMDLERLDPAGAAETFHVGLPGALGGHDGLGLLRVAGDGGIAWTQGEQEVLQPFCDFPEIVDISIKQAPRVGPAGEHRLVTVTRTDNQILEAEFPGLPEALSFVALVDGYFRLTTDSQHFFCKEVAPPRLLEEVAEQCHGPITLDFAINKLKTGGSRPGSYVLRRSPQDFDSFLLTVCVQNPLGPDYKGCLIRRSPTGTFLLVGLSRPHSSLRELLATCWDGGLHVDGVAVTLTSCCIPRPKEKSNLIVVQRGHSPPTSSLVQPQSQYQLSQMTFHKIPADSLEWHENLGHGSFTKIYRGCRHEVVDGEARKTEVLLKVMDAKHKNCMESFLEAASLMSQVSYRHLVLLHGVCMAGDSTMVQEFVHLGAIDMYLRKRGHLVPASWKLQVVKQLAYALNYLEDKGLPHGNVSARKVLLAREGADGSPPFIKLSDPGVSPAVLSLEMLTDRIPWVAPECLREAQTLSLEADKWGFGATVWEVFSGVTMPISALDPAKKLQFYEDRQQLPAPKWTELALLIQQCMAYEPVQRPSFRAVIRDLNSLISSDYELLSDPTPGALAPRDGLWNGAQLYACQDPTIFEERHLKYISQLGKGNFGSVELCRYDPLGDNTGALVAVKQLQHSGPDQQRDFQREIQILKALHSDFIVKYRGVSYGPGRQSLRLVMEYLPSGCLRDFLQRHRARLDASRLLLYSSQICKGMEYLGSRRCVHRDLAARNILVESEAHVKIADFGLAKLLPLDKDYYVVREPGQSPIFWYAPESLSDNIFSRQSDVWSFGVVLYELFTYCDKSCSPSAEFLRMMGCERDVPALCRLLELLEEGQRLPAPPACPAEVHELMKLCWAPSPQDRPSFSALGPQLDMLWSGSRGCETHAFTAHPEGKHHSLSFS

SMILES | IC50 (JAK2) | IC50 (JAK3) | IC50 (Tyk2) | IC50 (JAK1) | IC50 (JAK2; Table^a 154) | IC50 (JAK3; Table^a 154) | IC50 (Tyk2; Table^a 154) | IC50 (JAK1; Table^a 154)
Brc1csc(CN2CCC(c3nnn4cnc5[nH]ccc5c34)CC2)c1 [compound 237, 1-{1-[(4-bromothiophen-2-yl)methyl]piperidin-4-yl}-7H-pyrrolo[3,2-e][1,2,3]triazolo[1,5-c]pyrimidine] | 0.01 µM | 0.41 µM | > 1 µM | 0.0015 µM |  |  |  | 
CN(C)[C@@H]1CCN(C[C@H]2CC[C@H](c3nnn4cnc5[nH]ccc5c34)CC2)C1 [compound 340, (R)-1-{[trans-4-(7H-pyrrolo[3,2-e][1,2,3]triazolo[1,5-c]pyrimidin-1-yl)cyclohexyl]methyl}-N,N-dimethylpyrrolidin-3-amine] | 0.23 µM | > 1 µM | > 1 µM | 0.021 µM |  |  |  | 
OCC1(NC[C@H]2CC[C@H](c3nnn4cnc5[nH]ccc5c34)CC2)CC1 [compound 327, [1-({[trans-4-(7H-pyrrolo[3,2-e][1,2,3]triazolo[1,5-c]pyrimidin-1-yl)cyclohexyl]methyl}amino)cyclopropyl]methanol] | 0.054 µM | 0.79 µM | 0.55 µM | 0.007 µM |  |  |  | 
O=S(=O)(C[C@H]1CC[C@H](c2nnn3cnc4[nH]ccc4c23)CC1)C1CC1 [compound 366, 1-{trans-4-[(cyclopropylsulfonyl)methyl]cyclohexyl}-7H-pyrrolo[3,2-e][1,2,3]triazolo[1,5-c]pyrimidine] | 0.028 µM | 0.28 µM | 0.26 µM | 0.011 µM |  |  |  | 
O=C(NCCO)[C@H]1CC[C@H](c2nnn3cnc4[nH]ccc4c23)CC1 [compound 360, trans-N-(2-hydroxyethyl)-4-(7H-pyrrolo[3,2-e][1,2,3]triazolo[1,5-c]pyrimidin-1-yl)cyclohexanecarboxamide] | 0.1 µM | > 1 µM | 0.33 µM | 0.026 µM |  |  |  | 
c1cc2c(ncn3nnc([C@H]4CC[C@H](CNC5CC5)CC4)c23)[nH]1 [compound 280, N-{[trans-4-(7H-pyrrolo[3,2-e][1,2,3]triazolo[1,5-c]pyrimidin-1-yl)cyclohexyl]methyl}cyclopropanamine] | 0.062 µM | 0.68 µM | 0.1 µM | 0.0019 µM |  |  |  | 
OC[C@H]1CCCN1C[C@H]1CC[C@H](c2nnn3cnc4[nH]ccc4c23)CC1 [compound 265, ((R)-1-{[trans-4-(7H-pyrrolo[3,2-e][1,2,3]triazolo[1,5-c]pyrimidin-1-yl)cyclohexyl]methyl}pyrrolidin-2-yl)methanol] | 0.18 µM | > 1 µM | > 1 µM | 0.046 µM |  |  |  | 
S=c1[nH]c(C2CCCCC2)c2c3cc[nH]c3ncn12 [compound 8] | 0.03 µM | 0.43 µM | 0.036 µM | 0.02 µM |  |  |  | 
OCCN(CCO)C[C@H]1CC[C@H](c2nnn3cnc4[nH]ccc4c23)CC1 [compound 298, 2,2′-({[trans-4-(7H-pyrrolo[3,2-e][1,2,3]triazolo[1,5-c]pyrimidin-1-yl)cyclohexyl]methyl}azanediyl)diethanol] | 0.11 µM | > 1 µM | 0.59 µM | 0.019 µM |  |  |  | 
c1cc2c(ncn3nnc(C4CCC4)c23)[nH]1 [compound 67] |  |  |  |  | 0.2 µM | 0.65 µM | 0.41 µM | 0.052 µM
OC12CC3CC(C1)C(NC[C@H]1CC[C@H](c4nnn5cnc6[nH]ccc6c45)CC1)C(C3)C2 (stereo partly drawn) [compound 304, (1S,3R,4s,5S,7S)-4-({[trans-4-(7H-pyrrolo[3,2-e][1,2,3]triazolo[1,5-c]pyrimidin-1-yl)cyclohexyl]methyl}amino)adamantan-1-ol] | 0.27 µM | > 1 µM | > 1 µM | 0.049 µM |  |  |  | 
FC1(F)Oc2cccc(CN3CCC(c4nnn5cnc6[nH]ccc6c45)CC3)c2O1 [compound 229, 1-{1-[(2,2-difluorobenzo[d][1,3]dioxol-4-yl)methyl]piperidin-4-yl}-7H-pyrrolo[3,2-e][1,2,3]triazolo[1,5-c]pyrimidine] | 0.087 µM | > 1 µM | > 1 µM | 0.039 µM |  |  |  | 
FC(F)(F)C(F)(F)CNC[C@H]1CC[C@H](c2nnn3cnc4[nH]ccc4c23)CC1 [compound 342, N-{[trans-4-(7H-pyrrolo[3,2-e][1,2,3]triazolo[1,5-c]pyrimidin-1-yl)cyclohexyl]methyl}-2,2,3,3,3-pentafluoropropan-1-amine] | 0.034 µM | 0.13 µM | 0.35 µM | 0.0039 µM |  |  |  | 
Fc1ccc(CCNC[C@H]2CC[C@H](c3nnn4cnc5[nH]ccc5c34)CC2)cc1 [compound 111] |  |  |  |  | 0.027 µM | 0.22 µM | 0.028 µM | 0.0019 µM
O=C(NCc1ccc(F)cc1)[C@H]1CC[C@H](c2nnn3cnc4[nH]ccc4c23)CC1 [compound 207, trans-N-(4-fluorobenzyl)-4-(7H-pyrrolo[3,2-e][1,2,3]triazolo[1,5-c]pyrimidin-1-yl)cyclohexanecarboxamide] |  |  |  |  | 0.055 µM | > 1 µM | > 1 µM | 0.009 µM
CC(=O)N[C@H]1CCN(C[C@H]2CC[C@H](c3nnn4cnc5[nH]ccc5c34)CC2)C1 [compound 319, N-((S)-1-{[trans-4-(7H-pyrrolo[3,2-e][1,2,3]triazolo[1,5-c]pyrimidin-1-yl)cyclohexyl]methyl}pyrrolidin-3-yl)acetamide] | 0.23 µM | > 1 µM | > 1 µM | 0.027 µM |  |  |  | 
O=C([C@H]1CC[C@H](c2nnn3cnc4[nH]ccc4c23)CC1)N1CC[C@H](F)C1 [compound 209, [trans-4-(7H-pyrrolo[3,2-e][1,2,3]triazolo[1,5-c]pyrimidin-1-yl)cyclohexyl][(S)-3-fluoropyrrolidin-1-yl]methanone] |  |  |  |  | 0.42 µM | > 1 µM | > 1 µM | 0.061 µM
O[C@H]1Cc2ccccc2[C@H]1NC1CCC(c2nnn3cnc4[nH]ccc4c23)CC1 (mixture of isomers) [compound 378, (1R,2S)-1-{[4-(7H-pyrrolo[3,2-e][1,2,3]triazolo[1,5-c]pyrimidin-1-yl)cyclohexyl]amino}-2,3-dihydro-1H-inden-2-ol] | 0.071 µM | 0.41 µM | 0.2 µM | 0.004 µM |  |  |  | 
Fc1ccc2c(c1)CCN2C[C@H]1CC[C@H](c2nnn3cnc4[nH]ccc4c23)CC1 [compound 179, 1-[trans-4-((5-fluoroindolin-1-yl)methyl)cyclohexyl]-7H-pyrrolo[3,2-e][1,2,3]triazolo[1,5-c]pyrimidine] |  |  |  |  | 0.094 µM | > 1 µM | > 1 µM | 0.028 µM
O=C1NCCN1CCNC[C@H]1CC[C@H](c2nnn3cnc4[nH]ccc4c23)CC1 [compound 191, 1-[2-({[trans-4-(7H-pyrrolo[3,2-e][1,2,3]triazolo[1,5-c]pyrimidin-1-yl)cyclohexyl]methyl}amino)ethyl]imidazolidin-2-one] |  |  |  |  | 0.084 µM | 0.92 µM | 0.18 µM | 0.01 µM
C(=C\c1ccco1)/CN1CCC(c2nnn3cnc4[nH]ccc4c23)CC1 [compound 215, (E)-1-{1-[3-(furan-2-yl)allyl]piperidin-4-yl}-7H-pyrrolo[3,2-e][1,2,3]triazolo[1,5-c]pyrimidine] | 0.25 µM | > 1 µM | > 1 µM | 0.026 µM |  |  |  | 
OC1CCN(C[C@H]2CC[C@H](c3nnn4cnc5[nH]ccc5c34)CC2)CC1 [compound 271, 1-{[trans-4-(7H-pyrrolo[3,2-e][1,2,3]triazolo[1,5-c]pyrimidin-1-yl)cyclohexyl]methyl}piperidin-4-ol] | 0.063 µM | > 1 µM | 0.43 µM | 0.02 µM |  |  |  | 
Clc1ccc(CCNC[C@H]2CC[C@H](c3nnn4cnc5[nH]ccc5c34)CC2)cc1 [compound 178, N-{[trans-4-(7H-pyrrolo[3,2-e][1,2,3]triazolo[1,5-c]pyrimidin-1-yl)cyclohexyl]methyl}-2-(4-chlorophenyl)ethanamine] |  |  |  |  | 0.024 µM | 0.17 µM | 0.053 µM | 0.0026 µM
CC(C)(C)OC(=O)N[C@H]1CCN(C[C@H]2CC[C@H](c3nnn4cnc5[nH]ccc5c34)CC2)C1 [compound 307, tert-butyl ((S)-1-{[trans-4-(7H-pyrrolo[3,2-e][1,2,3]triazolo[1,5-c]pyrimidin-1-yl)cyclohexyl]methyl}pyrrolidin-3-yl)carbamate] | 0.26 µM | > 1 µM | > 1 µM | 0.0066 µM |  |  |  | 
N#CCOc1ccc(CN2CCC(c3nnn4cnc5[nH]ccc5c34)CC2)cc1 [compound 213, 2-(4-{[4-(7H-pyrrolo[3,2-e][1,2,3]triazolo[1,5-c]pyrimidin-1-yl)piperidin-1-yl]methyl}phenoxy)acetonitrile] | 0.19 µM | > 1 µM | > 1 µM | 0.024 µM |  |  |  | 
Cc1cnc(CNC[C@H]2CC[C@H](c3nnn4cnc5[nH]ccc5c34)CC2)cn1 [compound 183, 1-[trans-4-(7H-pyrrolo[3,2-e][1,2,3]triazolo[1,5-c]pyrimidin-1-yl)cyclohexyl]-N-[(5-methylpyrazin-2-yl)methyl]methanamine] |  |  |  |  | 0.055 µM | 0.8 µM | 0.041 µM | 0.0061 µM
N#C[C@H]1CCN(C(=O)[C@H]2CC[C@H](c3nnn4cnc5[nH]ccc5c34)CC2)C1 [compound 357, (S)-1-[trans-4-(7H-pyrrolo[3,2-e][1,2,3]triazolo[1,5-c]pyrimidin-1-yl)cyclohexanecarbonyl]pyrrolidine-3-carbonitrile] | 0.33 µM | > 1 µM | 0.87 µM | 0.067 µM |  |  |  | 
FC(F)(F)C(NC[C@H]1CC[C@H](c2nnn3cnc4[nH]ccc4c23)CC1)C(F)(F)F [compound 317, N-{[trans-4-(7H-pyrrolo[3,2-e][1,2,3]triazolo[1,5-c]pyrimidin-1-yl)cyclohexyl]methyl}-1,1,1,3,3,3-hexafluoropropan-2-amine] | 0.016 µM | 0.47 µM | 0.62 µM | 0.0013 µM |  |  |  | 
